Results from US7129215B2, “Tripeptide and tetrapeptide thioethers” (Telik, Inc., priority 2005, dated 2006).
Read-outs that look alike come from different tables or passages of the source. *1 amine or outer side, *2 acyl side, *3 side chain or, on linkers, in order; H or OH if unused. Where a SMILES comes first, the peptide text is derived from it. [ ]: non-standard residue; d: D form. The star is where a group is joined. γGlu = O=C(O)[C@H](CCC(=O)[*:2])N[*:1]; dPhg = N[C@@H](C(=O)O)c1ccccc1; Bn = c1ccc(C*)cc1

How the values were obtained:
GSTπ = biological target: T1, GSTπ (Homo sapiens, UniProt P09211); assay: GSTπ immunoprecipitation assay in HL60 cells; type: cell-based; settings: HL-60, read-out: GSTπ inhibition, %
T1 construct: endogenous in cells; host or cells: HL-60 (human promyeloid myelocytic leukemia)
Method: In vitro example 3. GSTπ immunoprecipitation assay. This example illustrates the beneficial effects of compounds of this invention in causing GSTπ immunoprecipitation. […] HL60 cells were seeded at 6×10^5 cells/mL in 20 mL RPMI-1640 medium supplemented with 10% fetal bovine serum, 1 mM glutamine and 20 μM gentamycin in a T75 flask and cultured overnight in 5% CO2 atmosphere at 37° C. […] Following the treatment, the cells were collected by centrifugation and washed twice with phosphate-buffered saline. The cell pellets were resuspended in 1 mL lysis buffer (50 mM Tris, pH 8.0, 120 mM NaCl, 0.5% NP-40 surfactant, 100 mM NaF; to which protease and phosphatase inhibitors (Roche Diagnostics, Indianapolis, Ind., U.S.A.) had been added before use) and incubated with gentle agitation for 30 minutes at 4° C. The cell lysates were cleared by centrifugation at 13,000 rpm for 10 minutes to remove cell debris. […] Following overnight incubation at 4° C., 30 μL of Protein A/G agarose beads (Pierce, Rockford, Ill.) were added to the mixture and incubated for 1 hour at 4° C. […] GSTπ protein bands were visualized and band intensity quantified on Odyssey infrared scanner (Li-Cor, Lincoln, Nebr., U.S.A.). The band intensity from a compound treatment was compared to its corresponding DMSO control and expressed as percent inhibition.

[1] = biological target: T2, Recombinant human GST P1-1 (Homo sapiens, UniProt P09211); settings: background statement; read-out: GST P1-1 IC50 (related art statement); cited from earlier work
T2 construct: purchased EMD Biosciences, Inc., San Diego, Calif., U.S.A

[2] = biological target: T2, Recombinant human GST P1-1; assay: Inhibition of glutathione S-transferase isoenzyme GST P1-1; type: biochemical
Method: (§1) Inhibition of glutathione S-transferase isoenzymes.
(§2) For each assay, the test compound and GSH were added to the isoenzyme. Immediately after the addition of CDNB solution to the isoenzyme/compound/GSH solution, the absorbance at 340 nm was recorded continuously for 5 min on a SpectraMax plate reader (Molecular Devices, Inc., Sunnyvale, Calif., U.S.A.). The GST inhibitory activity of each compound was calculated from the slopes of the absorbance/time curves at the various concentrations of test compound. All assays were conducted in duplicate wells, with DMSO control, with the final DMSO concentration maintained at 2%.

[3] = biological target: T3, Recombinant human GST A1-1 (Homo sapiens, UniProt P08263); assay: Inhibition of glutathione S-transferase isoenzyme GST A1-1; type: biochemical
T3 construct: purchased EMD Biosciences, Inc., San Diego, Calif., U.S.A
T3 sequence (P08263 1-222): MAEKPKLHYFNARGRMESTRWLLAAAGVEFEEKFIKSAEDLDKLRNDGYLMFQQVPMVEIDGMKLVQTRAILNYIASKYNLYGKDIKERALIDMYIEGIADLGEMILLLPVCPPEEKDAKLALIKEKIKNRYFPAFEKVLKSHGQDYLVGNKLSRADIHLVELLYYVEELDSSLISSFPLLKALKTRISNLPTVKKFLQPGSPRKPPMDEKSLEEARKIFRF
Method: as §1, §2

[4] = biological target: T4, Recombinant human GST M1-1 (Homo sapiens, UniProt P09488); assay: Inhibition of glutathione S-transferase isoenzyme GST M1-1; type: biochemical
T4 construct: purchased EMD Biosciences, Inc., San Diego, Calif., U.S.A
T4 sequence (P09488 2-218 limits assumed): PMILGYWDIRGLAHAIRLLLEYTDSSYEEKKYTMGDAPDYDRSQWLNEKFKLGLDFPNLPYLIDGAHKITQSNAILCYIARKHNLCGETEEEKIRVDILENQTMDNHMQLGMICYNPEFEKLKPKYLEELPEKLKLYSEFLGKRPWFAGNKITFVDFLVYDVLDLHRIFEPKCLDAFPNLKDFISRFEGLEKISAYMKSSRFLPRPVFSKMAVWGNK
Method: as §1, §2

[5] = test system: HL-60 human leukemia cell line; assay: Cytotoxicity in HL-60 cells (CellTiter-Glo); settings: read-out: HL-60 CC50 (concentration that causes 50% growth inhibition); diethyl ester compounds (1B to 12B, TLK199); 72 hours
Method: Cytotoxicity in HL-60 cells.
The cells were then incubated for 72 hours (approximately three doubling times). The cells were then harvested by centrifugation (1200 rpm for 5 min at 20° C.), and 100 μL of the culture supernatant was removed and replaced by the same volume of the CellTiter-Glo reagent. After incubation for 10 minutes at room temperature with constant mixing, the plate was read with a luminometer, with the number of live cells being proportional to the observed luminescence. All assays were conducted in triplicate wells, with DMSO solvent control.

[6] = both in vitro and in vivo; cited from earlier work
HL-60 cells [7] = assay: Enhancement of differentiation of HL-60 cells (CD11b expression, flow cytometry); type: cell-based, human; settings: diethyl ester compounds; 24 hours; CD11b expression vs DMSO control
Method: Some of the diethyl ester compounds of this invention were also tested for their ability to enhance the differentiation of HL-60 cells. This illustrates the beneficial effect of the compounds of this invention in stimulating differentiation of the HL-60 human leukemia cell line in vitro. […] The cells were harvested by centrifugation (1250 rpm for 5 min at 20° C.) and washed with 2 mL ice-cold phosphate-buffered saline (PBS) containing 2% FBS, then stained with 10 μL phycoerythrin-conjugated anti-CD11b antibody or 10 μL phycoerythrin-conjugated isotype control antibody. After standing for 30 min on ice, the cells were re-suspended in 2 mL ice-cold PBS containing 2% FBS. The cells were harvested by centrifugation (1250 rpm for 5 min at 20° C.) and resuspended in 0.4 mL PBS containing 2% FBS. The specific cell surface expression of CD11b, a marker for granulocytes and monocytes, was detected by flow cytometry using a FACSCalibur analyzer (BD Biosciences). All assays were conducted in triplicate, with DMSO control. The extent of differentiation was expressed as a multiple of the signal from the DMSO control.

[8] = test system: hematopoietic progenitor cells; settings: normal human peripheral blood; cited from earlier work
[9] = normal animals and animals depleted by cisplatin or fluorouracil; cited from earlier work
HL-60 cells [10] = settings: background statement; cited from earlier work
[11] = Phase II, MDS, interim results; cited from earlier work

T2 sequence (P09211 2-210 limits assumed): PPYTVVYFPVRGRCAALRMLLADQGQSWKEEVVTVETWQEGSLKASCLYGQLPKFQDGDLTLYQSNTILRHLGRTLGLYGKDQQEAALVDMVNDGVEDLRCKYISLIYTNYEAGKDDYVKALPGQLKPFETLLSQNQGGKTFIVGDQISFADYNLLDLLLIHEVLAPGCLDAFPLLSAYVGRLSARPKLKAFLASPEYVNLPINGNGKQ
T1 sequence (P09211 2-210 limits assumed): as above

Q: With `N[C@@H](CCC(=O)N[C@@H](CSCc1ccccc1)C(=O)N[C@@H](C(=O)O)c1ccccc1)C(=O)O` [TLK117, L-γ-glutamyl-S-(phenylmethyl)-L-cysteinyl-D-phenylglycine] (γGlu-Cys(Bn)-[dPhg]-OH) as the compound, how does the inhibition at 20 µM (GSTπ) read?
A: 90%

Q: What about the IC50 [1] of the same compound?
A: ~400 nM

Q: What about the IC50 [2] of the same compound?
A: 409 nM

Q: What about the IC50 [3] of the same compound?
A: 17 µM

Q: What about the IC50 [4] of the same compound?
A: 70 µM

Q: With `N[C@@H](CCC(=O)N[C@@H](CSCc1ccc(Cl)cc1)C(=O)N[C@@H](C(=O)O)c1ccccc1)C(=O)O` [TLK137] as the compound, how does the CC50 [5] read?
A: 10 µM

Q: And the IC50 ([2]; diacid compounds (1A to 12A, TLK117, TLK137), GSH and CDNB at 2×Km, pH 6.5)?
A: 52 nM

Q: And the IC50 ([3]; diacid compounds, GSH and CDNB at 2×Km, pH 6.5, read-out: GST A1-1 IC50)?
A: 10 µM

Q: And the IC50 ([4]; diacid compounds, GSH and CDNB at 2×Km, pH 6.5, read-out: GST M1-1 IC50)?
A: 6.5 µM

Q: What does the source list for `CCOC(=O)[C@@H](N)CCC(=O)N[C@@H](CSCc1ccccc1)C(=O)N[C@@H](C(=O)OCC)c1ccccc1` [TLK199]?
A: Potentiation of the activity of cytotoxic agents [6]: potentiate the activity of cytotoxic agents; Enhancement of differentiation of HL-60 cells (HL-60 cells [7]): enhances differentiation; Colony formation of hematopoietic progenitor cells [8]: stimulate colony formation of all three lineages; White blood cell production [9]: increase white blood cell production; Differentiation of HL-60 promyelocytic leukemia cells in vitro (HL-60 cells [10]): induce the differentiation; Hematologic improvement [11]: multilineage hematologic improvement; Tolerability [11]: well tolerated
